Test results published in ChEMBL document CHEMBL1121990, “Synthesis and pharmacological activity of 6-aryl-2-azabicyclo[4.2.1]nonanes” (1982).

tested on: Mus musculus; assay: Analgesic activity was determined after subcutaneous administration in mice using Eddy hot plate assay or Nilsen assay.; format: functional; conditions: sc

| Structure (SMILES) | ED50 [mg/kg] |
| --- | --- |
| COc1cccc(C23CCCN(C)C(CC2)C3)c1.O=C(O)C(=O)O (stereo not drawn) | 5.7 |
| Br.COc1cccc(C23CCCNC(CC2)C3)c1 (stereo not drawn) | 4 |
| CN1CCCC2(c3ccccc3)CCC1C2.O=C(O)C(=O)O (stereo not drawn) | 11.7 |
| Br.C=CCN1CCCC2(c3cccc(OC)c3)CCC1C2 (stereo not drawn) | 20 |
| Br.COc1cccc(C23CCCN(CCc4ccccc4)C(CC2)C3)c1 (stereo not drawn) | 10.9 |
| COc1ccc2c3c1O[C@H]1[C@@H](O)C=C[C@H]4[C@@H](C2)N(C)CC[C@@]341.COc1ccc2c3c1O[C@H]1[C@@H](O)C=C[C@H]4[C@@H](C2)N(C)CC[C@@]341.O.O=P(O)(O)O.O=P(O)(O)O [CODEINE PHOSPHATE] | 6.8 |
| Br.Oc1cccc(C23CCCN(CCc4ccccc4)C(CC2)C3)c1 (stereo not drawn) | 4.5 |
| Br.CN1CCCC2(c3cccc(O)c3)CCC1C2 (stereo not drawn) | 16.2 |
